Reference: publication PMC6476959, “Novel 3,4-Dihydroisocoumarins Inhibit Human P-gp and BCRP in Multidrug Resistant Tumors and Demonstrate Substrate Inhibition of Yeast Pdr5” (Frontiers in Pharmacology, 2019)
“Also recorded” adds a separate entry of the source.

Experiments:
[1] = system: BCRP-expressing MCF-7/MX cells; experiment: Sensitization of MCF-7/MX cells to mitoxantrone (co-treatment, cell viability); assay type: cell-based, human; settings: for Fold change of mitoxantrone IC50: IC50 (drug alone)/IC50 (drug with modulator)
Method: (§1) Cytotoxic activity of test compounds was analyzed after 48 h using the CellTiter-Glo Luminescent Cell Viability Assay published previously ([Weber et al., 2017]) in 384-well plates with the following cell densities: A549, MCF-7/MX: 2 × 10^3 cells/well; HCT-15: 3 × 10^3 cells/well; H69AR: 5 × 10^3 cells/well. Pipetting was conducted with the CyBi-Well 96-channel simultaneous pipettor (Analytik Jena AG, Jena, Germany). For generation of dose-response curves and calculation of IC50 values, the four-parameter logistic model was applied.
(§2) The ability of identified inhibitors of P-gp and BCRP to sensitize HCT-15 or MCF-7/MX cells to chemotherapy was analyzed by co-treatment with test compounds and doxorubicin or mitoxantrone, respectively. Cells were incubated with a serial dilution of the chemotherapeutic drug alone or in combination with fixed concentrations of the test compounds or positive controls (2.5 μM PSC833 and 1 μM Ko143, respectively). Fold change of drug IC50 was calculated with the formula IC50 (drug alone)/IC50 (drug with modulator).

Pdr5 [2] = target: T1, Pdr5 (Saccharomyces cerevisiae, UniProt P33302); experiment: Pdr5 transport assay (R6G) in plasma membrane preparations; assay type: biochemical; design: R6G transport activity of Pdr5 WT inhibited to (initial screen): dose or concentration left out as unconfirmed; settings: for R6G transport activity of Pdr5 WT inhibited to (initial screen): relative to Pdr5 WT without compound
T1 construct: effect on (A) the transport activity of Pdr5 WT and (B) their effect on the ATPase activity; made in house; host or cells: S. cerevisiae YRE1001 (pdr1-3 background), isolated plasma membranes
T1 sequence (P33302 whole entry): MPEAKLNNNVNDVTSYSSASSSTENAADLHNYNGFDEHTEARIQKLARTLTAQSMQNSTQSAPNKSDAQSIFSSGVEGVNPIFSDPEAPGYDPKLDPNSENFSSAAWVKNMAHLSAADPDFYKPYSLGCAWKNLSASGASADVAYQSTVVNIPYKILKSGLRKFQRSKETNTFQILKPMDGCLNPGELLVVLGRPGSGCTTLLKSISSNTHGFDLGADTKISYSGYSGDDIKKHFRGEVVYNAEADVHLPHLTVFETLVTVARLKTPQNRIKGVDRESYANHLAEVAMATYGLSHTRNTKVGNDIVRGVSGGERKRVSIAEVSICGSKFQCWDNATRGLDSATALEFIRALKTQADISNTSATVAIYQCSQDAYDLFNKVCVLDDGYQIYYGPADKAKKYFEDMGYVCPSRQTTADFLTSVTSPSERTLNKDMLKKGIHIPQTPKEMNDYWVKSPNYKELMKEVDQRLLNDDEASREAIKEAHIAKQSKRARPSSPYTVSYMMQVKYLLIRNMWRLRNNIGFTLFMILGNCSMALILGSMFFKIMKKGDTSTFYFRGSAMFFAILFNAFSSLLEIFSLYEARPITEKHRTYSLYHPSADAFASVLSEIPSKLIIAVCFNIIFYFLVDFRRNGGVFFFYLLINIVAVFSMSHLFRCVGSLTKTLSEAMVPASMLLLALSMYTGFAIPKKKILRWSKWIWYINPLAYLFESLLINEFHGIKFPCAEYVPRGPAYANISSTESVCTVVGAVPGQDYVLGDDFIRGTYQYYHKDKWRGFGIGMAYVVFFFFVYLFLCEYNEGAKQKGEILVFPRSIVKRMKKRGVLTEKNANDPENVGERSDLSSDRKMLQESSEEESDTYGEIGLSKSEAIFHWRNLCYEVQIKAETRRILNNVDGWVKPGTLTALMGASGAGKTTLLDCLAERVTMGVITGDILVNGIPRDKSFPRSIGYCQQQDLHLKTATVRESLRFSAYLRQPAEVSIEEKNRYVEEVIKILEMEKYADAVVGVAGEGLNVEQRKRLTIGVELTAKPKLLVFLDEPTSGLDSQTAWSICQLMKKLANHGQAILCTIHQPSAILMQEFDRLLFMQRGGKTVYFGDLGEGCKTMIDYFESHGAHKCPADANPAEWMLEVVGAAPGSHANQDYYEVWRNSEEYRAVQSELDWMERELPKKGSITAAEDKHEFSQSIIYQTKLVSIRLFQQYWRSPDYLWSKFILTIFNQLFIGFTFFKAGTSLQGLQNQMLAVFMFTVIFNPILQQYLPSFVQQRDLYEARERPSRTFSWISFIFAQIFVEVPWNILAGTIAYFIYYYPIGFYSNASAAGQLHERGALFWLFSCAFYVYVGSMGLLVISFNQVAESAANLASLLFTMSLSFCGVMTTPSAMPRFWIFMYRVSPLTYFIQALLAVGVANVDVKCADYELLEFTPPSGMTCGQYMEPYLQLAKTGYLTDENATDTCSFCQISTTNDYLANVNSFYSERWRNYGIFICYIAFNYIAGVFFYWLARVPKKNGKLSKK
Method: (§3) Saccharomyces cerevisiae cells expressing Pdr5 WT or the E1036Q (EQ) mutant were cultured to an OD600 of 1.5 in YPD-media at 25°C. The nitrogen source was replenished by addition of a 10th volume of 5x YP (50 g/l yeast extract, 100 g/l peptone). The cells were grown to an OD of 3.5 and harvested (5000 ×g at 4°C for 15 min). The isolation of Pdr5 containing PMs was performed as described ([Kolaczkowski et al., 1996]; [Ernst et al., 2008]).
Active transport of R6G was measured according to the protocol developed by [Kolaczkowski et al. (1996)], using a Tecan Infinite 200 pro reader (Tecan Group AG, Männedorf, Switzerland). 6 μg of the isolated PM containing Pdr5 were resuspended in 200 μl of the transport buffer (50 mM HEPES, pH 7.0, 5 mM MgCl2, 10 mM NaN3, and 150 nM R6G) and incubated in a black 96-well plate at 30°C. 5 μl of the test compound were added at the indicated concentrations. Active transport was initiated by the addition of 10 μl 200 mM ATP and fluorescence intensity was recorded in 15 s-intervals for 20 min (excitation wavelength at 524 nm, emission wavelength at 558 nm, number of flashes 30, integration time 2000 μs). IC50 determination was performed with a serial dilution of the test compounds.

[3] = system: P-gp expressing HCT-15 cells; experiment: Sensitization of HCT-15 cells to doxorubicin (co-treatment, cell viability); assay type: cell-based, human; settings: for Fold change of doxorubicin IC50: IC50 (drug alone)/IC50 (drug with modulator)
Method: as §1, §2

Pdr5 [4] = target: T1, Pdr5; experiment: Pdr5 ATPase assay (oligomycin-sensitive) in plasma membrane preparations; assay type: biochemical; settings: highest concentrations (10 mM), in comparison to Pdr5 WT in the absence of any compound
Method: as §3
Oligomycin (OM)-sensitive ATPase activity was measured from 0.8 μg PM containing Pdr5 incubated with 2 mM ATP, 5 mM MgCl2 in 270 mM TRIS-glycine buffer (pH 9.5) and 2.5 μl of the test compounds or DMSO as a control in a total volume of 100 μl. To reduce the background activities, 0.2 mM ammonium molybdate, 10 mM NaN3 and 50 mM KNO3, respectively, were added ([Dufour et al., 1988]; [Goffeau and Dufour, 1988]). In a second assay, OM (20 μg/ml) was added to an otherwise identical setup. After incubation at 30°C for 20 min, the reaction was stopped by adding 25 μl of the reaction to 175 μl 40 mM H2SO4. The amount of released inorganic phosphate was determined by a colometric assay in 96-well plates ([Goffeau and Dufour, 1988]; [Decottignies et al., 1994]; [Wada et al., 2002]). The difference of both assays ( ± OM) corresponds to the specific ATPase activity of Pdr5 ([Ernst et al., 2008]).

[5] = system: S. cerevisiae strain expressing Pdr5 WT; experiment: Liquid drug assay, yeast strain expressing Pdr5 WT; assay type: cell-based, Saccharomyces cerevisiae; settings: serial dilutions, 48 h, 30°C, OD600
Method: (§4) The following S. cerevisiae yeast strain was used: YRE1001 (MATa ura3-52 trp1-1 leu2-3,112 his3-11,15 ade2-1 pdr1-3 pdr5pdr5promΔ::TRP1). S. cerevisiae was cultured in YPD medium (10 g/L yeast extract, 20 g/L peptone, 2% glucose) at 30°C and 200 rpm. The yeast strain has been described previously ([Ernst et al., 2008]; [Gupta et al., 2014]). Based on these studies it is evident that Pdr5 localizes to the PM and is present in approximately 10% of the overall membrane protein content of the PM.
(§5) The liquid drug assay was carried out in sterile 96-well plates. 50 μl of yeast cell culture at an OD600 of 0.15 were mixed with 193.75 μl YPD and 6.25 μl of the test compound or DMSO as a negative control. To distinguish between cytotoxic compounds and those which inhibit Pdr5 WT specifically, the Pdr5 substrate ketoconazole was added only to cultures expressing wild-type Pdr5 in a final concentration of 1 μg/ml. At this concentration, inhibition of Pdr5 would result in ketoconazole-mediated cell death. After 48 h at 30°C the growth was measured with an ELISA plate reader (BioRad, Hercules, CA, United States) at 595 nm.

[6] = system: S. cerevisiae strain expressing Pdr5 EQ; experiment: Liquid drug assay, yeast strain expressing Pdr5 EQ mutant; assay type: cell-based, Saccharomyces cerevisiae; settings: serial dilutions, 48 h, 30°C, OD600
Method: as §4, §5

CCCCCC1Cc2cc(OC)cc(O)c2C(=O)O1 (stereo not shown) [Compound 16]
Fold change of mitoxantrone IC50 ([1]; +10 μM of the modulator): 0.93 | Fold change of mitoxantrone IC50 ([1]; +20 μM of the modulator): 3.70 | Fold change of mitoxantrone IC50 ([1]; +50 μM of the modulator): 5.6 | IC50 (Pdr5 [2]): 15.1 ± 2.1 µM | R6G transport activity of Pdr5 WT inhibited to (initial screen) (Pdr5 [2]): inhibit the transport of R6G completely; also recorded: inhibit the transport activity of Pdr5 WT completely | Fold change of doxorubicin IC50 ([3]; +20 μM of the modulator): 0.98 | Fold change of doxorubicin IC50 ([3]; +50 μM of the modulator): 3.7

COc1cc(O)c2c(c1)CCOC2=O [Compound 14]
ATPase activity of Pdr5 WT inhibited to (initial screen) (Pdr5 [4]): nearly no effect; also recorded: no inhibitory effect | Sensitization of MCF-7/MX cells to mitoxantrone (in words) [1]: did not have a significant influence | Fold change of mitoxantrone IC50 ([1]; +10 μM of the modulator): 1.01 | Fold change of mitoxantrone IC50 ([1]; +20 μM of the modulator): 0.77 | Fold change of mitoxantrone IC50 ([1]; +50 μM of the modulator): 0.78 | R6G transport activity of Pdr5 WT inhibited to (initial screen) (Pdr5 [2]): did not interfere with Pdr5-mediated R6G transport; also recorded: no effect | Sensitization of HCT-15 cells to doxorubicin (in words) [3]: did not sensitize the cells to doxorubicin | Fold change of doxorubicin IC50 ([3]; +20 μM of the modulator): 0.89 | Fold change of doxorubicin IC50 ([3]; +50 μM of the modulator): 0.80

CCCCCC1Cc2cc(OC)cc(OC)c2C(=O)O1 (stereo not shown) [Compound 16a]
Effect on growth of yeast strain expressing Pdr5 WT [5]: no effect on the wild-type strain | Effect on growth of yeast strain expressing Pdr5 EQ mutant [6]: inhibited the growth of the mutant strain slightly at the highest tested concentration | IC50 (Pdr5 [2]): 14.6 ± 3.9 µM | R6G transport activity of Pdr5 WT inhibited to (initial screen) (Pdr5 [2]): inhibit the transport of R6G completely; also recorded: inhibit the transport activity of Pdr5 WT completely

COc1cc(O)c2c(c1)C[C@H](C)OC2=O [Angelicoin B (4), angelicoin B]
ATPase activity of Pdr5 WT inhibited to (initial screen) (Pdr5 [4]; listed as 4): nearly no effect | ATPase activity of Pdr5 WT inhibited to (initial screen) (Pdr5 [4]; listed as angelicoin (4)): no effect | ATPase activity of Pdr5 WT inhibited to (initial screen) (Pdr5 [4]; listed as angelicoin B (4)): no inhibitory effect | R6G transport activity of Pdr5 WT inhibited to (initial screen) (Pdr5 [2]; listed as 4): no effect | R6G transport activity of Pdr5 WT inhibited to (initial screen) (Pdr5 [2]; listed as angelicoin B (4)): did not interfere with Pdr5-mediated R6G transport
